Measured values taken from PMC10835127, “Viruses traverse the human proteome through peptide interfaces that can be biomimetically leveraged for drug discovery” (Proceedings of the National Academy of Sciences of the …, 2024).
Where two headings read alike, the source gives them in different places.

How the values were obtained:
in vivo = conditions: male, Sprague Dawley, rat, 50 mg/kg, 50 mg/kg per os
Method: For this molecule, both antiviral potency (IC50 of 3 nM) and PK properties were improved, with low clearance and high exposure in mouse plasma. […] The tissue distribution was also assessed at two different time points (2 and 24 h) after per os administration in mice (20 mg/kg) and rats (50 mg/kg) (Fig. 5C). […] Such low lung/plasma ratio precluded the use of dEF3122 in respiratory diseases such as influenza without further optimization.

[1] = tested on: diet-induced obese model of NASH; assay: NASH mouse model (AMLN diet-induced obese); type: in vivo, C57BL/6JRj mice; conditions: oral, 8 wk
Method: Fig. 6. Effect of the lead compound in a diet-induced obese model of NASH. Mice fed with a high fat, high fructose, and cholesterol supplemented diet for 38 wk were then treated in the last 8 wk with vehicle, dEF3122, or OCA (obeticholic acid) at indicated concentrations (n = 12 animals per group). (A and B) Histopathological mean score changes between the beginning and end of the treatment for liver portal inflammation (A) and liver portal fibrosis (B) are shown with representative stained liver sections of hematoxylin and eosin (H&E) and picrosirius red stains, respectively. (C–E) (C) Areas of kidney fibrosis at the end of the treatment are shown as % of the total area of the selected fields with representative sections of the kidney stained with picrosirius red. (D) % CD3 and (E) % F4/80 positive areas in kidneys with representative sections of CD3 and F4/80 immunostainings. *P < 0.05, **P < 0.01, and ***P < 0.001 from the T test with a preliminary nonsignificant Shapiro–Wilk test or from Wilcoxon signed–rank test otherwise.
Five-week-old male C57BL/6JRj mice were fed either chow diet or AMLN diet (40% total fat kcal of which 18.5% were trans-fat kcal, 20% fructose, and 2% cholesterol). This diet was maintained for 30 wk prior to study initiation. Three weeks prior to study initiation, liver biopsies were taken, and animals with steatosis grade <2 and fibrosis stage <1 were excluded from the study. Prior to the first administration of the test compound, stratified randomization of mice into treatment groups was performed according to collagen 1a1 (IHC) morphometry from the week 3 biopsies. Each treatment group consisted of 12 mice. For a total of 8 wk, compound dEF3122 was administered orally, twice daily at a concentration of 7 mg/kg or 20 mg/kg. OCA was administered orally, once daily at a concentration of 7 mg/kg. Animals were killed at the end of the treatment, and livers and kidneys were collected. […]
NASH histopathology and immunochemistry
Livers were fixed in 10 % neutral buffered formalin and paraffin-embedded; and sections were stained with H&E and picrosirius red to analyze their morphology. Histopathological analysis was performed by a pathologist blinded to the study. Fibrosis was evaluated by quantification of the picrosirius red positive areas. Inflammation was graded by counting the H&E positive inflammatory foci per field.
Kidneys were fixed in 4 % PFA and paraffin embedded. 4-μm sections were stained with picrosirius red. Images were acquired using a digital slide scanner (Nanozoomer S210 Digital Slide Scanner, Hamamatsu). Renal lesions were blindly examined by a renal pathologist. The extent of interstitial fibrosis was quantified using Image J software (NIH) on Sirius red scanned colored sections. In short, at least 20 random selected fields (original magnification, ×200) across the kidney cortex were analyzed per each kidney section, and the results were expressed as percentages of the total area of the selected fields.
For immunohistochemistry, 4-µm sections of paraffin-embedded kidneys were submitted for appropriate antigen retrieval by high pressure heating in a solution of Tris EDTA Tween or in a citrate solution. Then, sections were then incubated overnight at 4°C with the following antibodies: rabbit monoclonal anti-CD3 (Abcam, 1:100) and rat monoclonal anti- F4/80 (Biorad, 1:100). After washing, sections were incubated with appropriate amplification secondary antibody: biotin-coupled anti-rabbit (GE Healthcare) for CD3 and biotin-coupled anti-rat (Vector Laboratories) for F4/80, and then incubated with streptavidin coupled HRP (Southern). At the end, DAB (DAKO) staining was used to detect HRP. For quantification of CD3+ and F4/80+ renal cells, the degrees of cellular infiltrate were automatically quantified using ImageJ software (NIH) and expressed as a percentage of the surface area of the positive staining per field, in at least 10 random fields perp

[2] = Plasma protein binding by equilibrium dialysis, murine; type: in vitro ADME; conditions: mouse, read-out: PPB (% bound)
Method: The free and bound fractions of the tested compounds in mouse and human plasma were determined by equilibrium dialysis using a 96-well Teflon dialysis unit (HTDialysis plate complete unit, HT Dialysis, USA). The HTDialysis plate complete unit consists of a 96-well plate with wells vertically bisected by a semipermeable membrane (membranes strips 12 to 14 kDa) creating two chambers. A 125 μL aliquot of plasma containing tested compound at 10 μM was placed on one side and 125 μL of Dulbecco‘s phosphate buffered saline (D-PBS) on the other. The plate was incubated at 37 °C for 6 hr under gentle agitation. Then, samples from both plasma and buffer compartment were analyzed by a LC-MS/MS method to measure the free fraction and the bound fraction to the plasma proteins. […]

MitoNEET = biological target: T1, MitoNEET (Homo sapiens, UniProt Q9NZ45); assay: In vitro NEET [2Fe-2S] cluster release, MitoNEET; type: biochemical; conditions: recombinant MitoNEET, 37 °C, absorbance 460 nm
T1 construct: MitoNEET ([60]) and NAF-1 ([61]) cytosolic domains and MiNT ([62]) were purified from E. coli as previously published; made in house; host or cells: E. coli
T1 sequence (Q9NZ45 32-108 limits assumed): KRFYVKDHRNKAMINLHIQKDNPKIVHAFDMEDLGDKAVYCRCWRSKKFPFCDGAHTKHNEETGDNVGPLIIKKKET
Method: (§1) MitoNEET ([60]) and NAF-1 ([61]) cytosolic domains and MiNT ([62]) were purified from E. coli as previously published. Experiments were performed in 96-well plates at 37 °C with […] of Fe-S cluster in a buffer composed of 50 mM Tris-HCl pH 7 and 100 mM NaCl. dEF3122 was dissolved in dimethyl sulfoxide (DMSO) at 10 mM. CPEP31 was dissolved in PBS at 10 mM. After 20 min of incubation of the protein with the molecule, NEET cluster release was followed by measuring the absorbance at 460 and 800 nm over time using a plate reader (SpectraMax ID3). The absorbance at 460 nm was corrected for the variation of the baseline (absorbance at 800 nm) over time and normalized at 1 at the beginning of the kinetics.

MiNT = biological target: T2, MiNT (Homo sapiens, UniProt P0C7P0); assay: In vitro NEET [2Fe-2S] cluster release, MiNT; type: biochemical; conditions: recombinant MiNT, 37 °C, absorbance 460 nm
T2 construct: made in house; host or cells: E. coli
T2 sequence (P0C7P0 15-127): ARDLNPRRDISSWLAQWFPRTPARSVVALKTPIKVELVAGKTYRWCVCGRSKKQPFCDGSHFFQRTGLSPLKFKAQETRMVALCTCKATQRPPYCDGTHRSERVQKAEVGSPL
Method: as §1

[3] = dEF3122 twice daily 7 or 20 mg/kg, OCA once daily 7 mg/kg, vs vehicle

O=C(Nc1scc(C2CCc3ccccc3C2)c1C(=O)O)c1ccccc1 (stereo not drawn) [dEF3122]
Kp (in vivo; 2 h, read-out: Liver:Plasma Ratio): 0.91
Kp (in vivo; 2 h, read-out: Lung:Plasma Ratio): 0.11
Kp (in vivo; 24 h, read-out: Liver:Plasma Ratio): 0.78
Kp (in vivo; 24 h, read-out: Lung:Plasma Ratio): 0.18
kidney interstitial lymphocytes infiltration (CD3) ([1]; twice daily 7 or 20 mg/kg): attenuated interstitial lymphocytes infiltration
kidney macrophages infiltration (F4/80) ([1]; twice daily 7 or 20 mg/kg): but not macrophages infiltration
kidney fibrosis ([1]; twice daily 7 or 20 mg/kg, picrosirius red): dramatically reduced fibrosis
liver portal fibrosis [1, 3]: resolved portal inflammation and fibrosis
liver portal inflammation [1, 3]: resolved portal inflammation
fraction unbound at 6 h, 10 µM [2]: 0.001
interaction by [2Fe-2S] cluster release assay (MitoNEET): validated the interaction
interaction by [2Fe-2S] cluster release assay (MiNT): validated the interaction
